Source: patent US9271987B2, “Methods and compositions for treating Alzheimer's disease” (Cold Spring Harbor Laboratory, priority 2011, dated 2016)
“Also recorded” adds a separate entry of the source.

Legend:
[1] = system: Aβ42-expressing flies (elav-Gal4/Y; UAS-Aβ42/+); test: Pavlovian olfactory associative immediate memory in Aβ42-expressing flies after drug feeding
Method: Flies were raised and maintained at room temperature (22-24° C.).

[2] = system: Tg(APPswe.PSEN1dE9) double transgenic mice; test: Morris water maze in AD-model double transgenic mice; type: in vivo, mouse; settings: for Rescue of memory loss in Morris water maze: 8-month-old mice, lavage once daily from 9 days before training until end of experiments (18 days)
human EGFR = biological target: T1, human EGFR (Homo sapiens, UniProt P00533); test: p-EGFR level in COS-7 cells transfected with human EGFR wt (Western blot); type: cell-based; settings: 15 min; for Level of p-EGFR or activated EGFR after Aβ42 application: 25 μg/ml Aβ42 preparation
T1 construct: expressed in transfected cells; host or cells: COS-7 (monkey kidney), Lipofectamine 2000, plasmid from Dr. Parsons
Method: COS-7 cells were transfected with human EGFR^wt plasmid for 48 h, then incubated with 25 μg/ml oligomeric Aβ42 preparation for 15 min. Human EGF (0.5 μg/ml) for positive control. N=3.
COS-7 cells were cultured in normal Dulbecco's Modified Eagle Medium (D-MEM) containing 10% fetal bovine serum (Invitrogen) at 37° C. in 5% CO2. […] Transfection as performed following the Lipofectamine 2000 manuals (Invitrogen). After 48 h, cells were washed with fresh medium once and incubated with 10 or 25 μg/ml Aβ42 oligomers for 15 min at 37° C. in 5% CO2. 0.5 μg/ml human EGF (Sigma) was used as a positive control. Cells were then washed with PBS for 3 times and collected.
Whole fly head or cells lysates were prepared using a RIPA buffer containing 0.3% SDS, 50 mM Tris-HCl, pH 7.4, 0.5% NP-40, 1% sodium deoxycholate, 150 mM NaCl, 5 mM EDTA, 1 tablet per 50 ml complete protease inhibitor cocktail (Roche Diagnostics). Lysates were diluted in an SDS sample buffer and separated on 10-20% Tris-Tricine gels (Invitrogen), and transferred to nitrocellulose membranes (Invitrogen). The membranes were boiled in PBS for 3 min, blocked with 5% non-fat dry milk and blotted with a first antibody. First antibodies used herein included mouse anti-Aβ42 (6E10, Covance Research Products), mouse anti-dEGFR (Abcam), rabbit anti-hEGFR (Cell Signaling), mouse anti-hEGFR-p (Cell Signaling) and rabbit anti-Actin (Sigma). Data were analyzed with the ImageJ software (National Institutes of Health).

[3] = EGFR inhibitor 0.01, 0.1, 1, 10 μg/ml, fed 4 hours each day for 7 days, 10-day-old Aβ42-expressing males

Compound | Aβ42-induced memory loss (immediate memory) [1, 3] | Rescue of memory loss in Morris water maze [2] | Level of p-EGFR or activated EGFR after Aβ42 application (human EGFR) | further results
C#Cc1cccc(Nc2ncnc3cc(OCCOC)c(OCCOC)cc23)c1 [Er, N-(3-ethynylphenyl)-6,7-bis(2-methoxyethoxy)quinazolin-4-amine] | prevented the memory loss |  |  | 
COc1cc2ncnc(Nc3ccc(F)c(Cl)c3)c2cc1OCCCN1CCOCC1 [Ge, N-(3-chloro-4-fluoro-phenyl)-7-methoxy-6-(3-morpholin-4-ylpropoxy)quinazolin-4-amine] | prevented the memory loss | sufficient to rescue the memory loss; also recorded: rescuing effects were observed |  | Effect of two-month drug feeding on memory loss ([2]; drug feeding from 6- to 8-month-old): produced a positive effect
CC12CC3CC(C)(C1)CC(N)(C3)C2 [memantine] |  | unable to improve the memory-loss phenotype |  | Rescue of memory loss in Morris water maze ([2]; listed as Mem): No improvement in memory; Rescue of memory loss in Morris water maze ([2]; listed as momentine): had no effect; Aβ42-induced memory loss (immediate memory) ([1]; memantine 20 μg/ml, fed 4 hours each day for 7 consecutive days, memory at day 10 post-eclosion, male flies): capable of preventing the memory loss
Aβ42 from oligomeric preparation: Synthetic and recombinant wild type Aβ42 (AnaSpec) incubated at 4° C. for 24 h to form oligomers |  |  | significantly elevated | Expression levels of EGFRs after Aβ42 application (human EGFR; 25 μg/ml Aβ42 from oligomeric preparation): not affected
monomeric Aβ42 preparation: Aβ42 peptide preparation abundant in monomers |  |  | opposite effect | 
